Measured values taken from patent US12643867B2, “Compositions and uses thereof” (University of Virginia Patent Foundation, priority 2017, dated 2026).

Tests used:
Experiment in all cases: SILAC LC-MS ATP acyl phosphate probe competition, native kinases in HEK293T
Assay type in all cases: binding
[1] = molecular target: T1, KS6A1 (Ribosomal protein S6 kinase alpha 1) (Homo sapiens, UniProt Q15418); conditions: site ACT; ATP 1 mM; Ketanserin, Ritanserin 100 μM; RF001 1 mM
T1 construct: measured against >50 native kinases quantified in HEK293T soluble proteomes; endogenous in cells; host or cells: HEK293T soluble proteome
T1 sequence (Q15418 whole entry): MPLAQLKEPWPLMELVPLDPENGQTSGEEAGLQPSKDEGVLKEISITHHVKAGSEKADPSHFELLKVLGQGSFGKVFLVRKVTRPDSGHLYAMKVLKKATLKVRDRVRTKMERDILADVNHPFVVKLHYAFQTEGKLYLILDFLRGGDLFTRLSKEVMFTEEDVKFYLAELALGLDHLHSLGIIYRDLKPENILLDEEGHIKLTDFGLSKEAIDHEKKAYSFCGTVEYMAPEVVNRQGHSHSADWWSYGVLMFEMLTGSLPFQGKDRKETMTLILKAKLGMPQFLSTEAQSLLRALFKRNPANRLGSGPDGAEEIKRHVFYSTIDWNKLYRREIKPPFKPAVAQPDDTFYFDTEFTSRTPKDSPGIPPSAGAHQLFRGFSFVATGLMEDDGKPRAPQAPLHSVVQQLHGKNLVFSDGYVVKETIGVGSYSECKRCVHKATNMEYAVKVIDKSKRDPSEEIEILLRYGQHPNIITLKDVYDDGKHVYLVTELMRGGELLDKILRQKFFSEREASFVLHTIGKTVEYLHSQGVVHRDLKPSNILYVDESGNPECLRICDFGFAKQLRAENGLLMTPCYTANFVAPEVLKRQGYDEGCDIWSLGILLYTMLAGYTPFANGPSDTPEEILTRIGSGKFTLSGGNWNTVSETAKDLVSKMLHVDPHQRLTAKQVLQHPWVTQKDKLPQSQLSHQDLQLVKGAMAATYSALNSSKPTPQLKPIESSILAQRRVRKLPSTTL
Procedure, shortened: (§1)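 Light and heavy SILAC HEK293T proteomes (2 mg/ml in kinase buffer) were pre-treated with DMSO or compound (50× stock in DMSO) for 30 min at 25° C, then mixed 1:1, reduced, alkylated and digested with trypsin/Lys-C. Desthiobiotin-labelled peptides were avidin-enriched and analysed by LC-MS/MS on an Orbitrap, top-10 data-dependent acquisition.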

[2] = molecular target: T2, CSK (Tyrosine-protein kinase CSK) (Homo sapiens, UniProt P41240); conditions: site ACT; ATP 1 mM; Ketanserin, Ritanserin 100 μM; RF001 1 mM
T2 construct: measured against >50 native kinases quantified in HEK293T soluble proteomes; endogenous in cells; host or cells: HEK293T soluble proteome
T2 sequence (P41240 whole entry): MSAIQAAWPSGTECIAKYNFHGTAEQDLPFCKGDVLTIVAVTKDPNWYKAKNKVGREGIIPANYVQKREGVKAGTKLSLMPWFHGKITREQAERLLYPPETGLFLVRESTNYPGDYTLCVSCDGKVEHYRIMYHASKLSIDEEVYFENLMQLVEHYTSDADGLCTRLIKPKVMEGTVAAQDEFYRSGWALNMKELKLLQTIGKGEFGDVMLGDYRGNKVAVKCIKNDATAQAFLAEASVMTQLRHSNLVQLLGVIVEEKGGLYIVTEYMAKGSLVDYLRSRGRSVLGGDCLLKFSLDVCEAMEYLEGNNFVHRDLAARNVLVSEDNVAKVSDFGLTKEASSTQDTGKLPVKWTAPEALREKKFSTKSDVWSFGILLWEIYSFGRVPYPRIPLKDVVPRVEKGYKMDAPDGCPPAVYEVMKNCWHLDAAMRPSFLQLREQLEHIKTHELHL
Procedure, shortened: as §1

[3] = molecular target: T3, MP2K3 (Dual specificity mitogen-activated protein kinase kinase 3) (Homo sapiens, UniProt P46734); conditions: site Lys2; ATP 1 mM; Ketanserin, Ritanserin 100 μM; RF001 1 mM
T3 construct: Native kinases; endogenous in cells; host or cells: HEK293T soluble proteome
T3 sequence (P46734 1-347): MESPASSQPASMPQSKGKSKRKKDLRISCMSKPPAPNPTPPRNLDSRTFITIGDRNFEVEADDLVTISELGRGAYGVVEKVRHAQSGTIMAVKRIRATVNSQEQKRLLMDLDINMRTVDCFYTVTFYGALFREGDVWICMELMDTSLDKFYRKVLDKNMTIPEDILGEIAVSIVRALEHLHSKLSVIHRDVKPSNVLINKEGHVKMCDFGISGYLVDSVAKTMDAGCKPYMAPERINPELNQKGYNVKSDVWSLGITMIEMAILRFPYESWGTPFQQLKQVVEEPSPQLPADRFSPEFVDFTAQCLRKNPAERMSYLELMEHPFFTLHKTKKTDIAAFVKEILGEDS
Procedure, shortened: as §1

[4] = molecular target: T4, MP2K6 (Dual specificity mitogen-activated protein kinase kinase 6) (Homo sapiens, UniProt P52564); conditions: site Lys1; ATP 1 mM; Ketanserin, Ritanserin 100 μM; RF001 1 mM
T4 construct: Native kinases; endogenous in cells; host or cells: HEK293T soluble proteome
T4 sequence (P52564 1-334): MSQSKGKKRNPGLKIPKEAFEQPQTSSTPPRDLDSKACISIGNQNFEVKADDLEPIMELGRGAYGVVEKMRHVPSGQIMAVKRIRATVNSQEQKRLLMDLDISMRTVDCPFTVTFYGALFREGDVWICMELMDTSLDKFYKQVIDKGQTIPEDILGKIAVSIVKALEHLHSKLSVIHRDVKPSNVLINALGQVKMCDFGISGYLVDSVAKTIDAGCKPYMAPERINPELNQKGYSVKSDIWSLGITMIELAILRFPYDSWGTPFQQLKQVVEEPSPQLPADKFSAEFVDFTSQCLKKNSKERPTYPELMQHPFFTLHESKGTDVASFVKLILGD
Procedure, shortened: as §1

[5] = molecular target: T5, KCC1D (Calcium/calmodulin-dependent protein kinase type 1D) (Homo sapiens, UniProt Q8IU85); conditions: site Lys1; ATP 1 mM; Ketanserin, Ritanserin 100 μM; RF001 1 mM
T5 construct: measured against >50 native kinases quantified in HEK293T soluble proteomes; endogenous in cells; host or cells: HEK293T soluble proteome
T5 sequence (Q8IU85 whole entry): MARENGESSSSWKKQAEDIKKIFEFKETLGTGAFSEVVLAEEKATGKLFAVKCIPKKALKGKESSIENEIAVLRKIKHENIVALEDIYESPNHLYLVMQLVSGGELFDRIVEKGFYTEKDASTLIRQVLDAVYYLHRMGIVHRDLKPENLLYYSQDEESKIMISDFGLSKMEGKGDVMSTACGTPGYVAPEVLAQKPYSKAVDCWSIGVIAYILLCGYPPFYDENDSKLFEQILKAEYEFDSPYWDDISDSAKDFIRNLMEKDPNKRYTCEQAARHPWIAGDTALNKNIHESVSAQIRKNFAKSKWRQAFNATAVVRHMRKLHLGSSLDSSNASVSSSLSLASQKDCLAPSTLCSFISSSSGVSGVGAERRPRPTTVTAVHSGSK
Procedure, shortened: as §1

[6] = molecular target: T6, STK10 (Serine/threonine-protein kinase 10) (Homo sapiens, UniProt O94804); conditions: site Lys2; ATP 1 mM; Ketanserin, Ritanserin 100 μM; RF001 1 mM
T6 construct: Native kinases; endogenous in cells; host or cells: HEK293T soluble proteome
T6 sequence (O94804 whole entry): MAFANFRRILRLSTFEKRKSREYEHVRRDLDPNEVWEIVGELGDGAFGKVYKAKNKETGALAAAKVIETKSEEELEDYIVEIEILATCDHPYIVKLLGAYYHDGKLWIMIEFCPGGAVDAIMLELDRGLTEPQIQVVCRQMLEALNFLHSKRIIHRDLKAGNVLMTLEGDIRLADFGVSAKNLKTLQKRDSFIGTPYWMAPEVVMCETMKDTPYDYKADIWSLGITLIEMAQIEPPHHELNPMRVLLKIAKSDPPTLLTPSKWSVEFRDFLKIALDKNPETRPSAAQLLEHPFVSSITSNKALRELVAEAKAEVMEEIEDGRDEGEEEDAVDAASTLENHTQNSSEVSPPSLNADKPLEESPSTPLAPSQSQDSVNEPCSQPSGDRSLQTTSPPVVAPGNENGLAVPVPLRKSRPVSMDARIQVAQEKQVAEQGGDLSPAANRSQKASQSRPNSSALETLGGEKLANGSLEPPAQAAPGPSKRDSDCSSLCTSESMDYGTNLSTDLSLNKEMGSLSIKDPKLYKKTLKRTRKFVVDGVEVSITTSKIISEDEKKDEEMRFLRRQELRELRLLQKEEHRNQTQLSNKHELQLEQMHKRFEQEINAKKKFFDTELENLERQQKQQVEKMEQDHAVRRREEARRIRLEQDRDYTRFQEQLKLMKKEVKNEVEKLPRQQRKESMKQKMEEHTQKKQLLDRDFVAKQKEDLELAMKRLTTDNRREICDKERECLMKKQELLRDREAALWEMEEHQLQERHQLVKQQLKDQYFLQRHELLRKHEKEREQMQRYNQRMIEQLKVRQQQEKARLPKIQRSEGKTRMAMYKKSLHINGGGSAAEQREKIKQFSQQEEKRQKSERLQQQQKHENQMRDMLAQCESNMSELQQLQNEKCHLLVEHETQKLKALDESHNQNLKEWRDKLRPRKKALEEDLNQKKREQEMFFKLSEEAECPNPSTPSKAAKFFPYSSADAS
Procedure, shortened: as §1

Compound	SILAC ratio, KS6A1 probe-modified peptide [1]	SILAC ratio, CSK probe-modified peptide [2]	SILAC ratio, MP2K3 probe-modified peptide [3]	SILAC ratio, MP2K6 probe-modified peptide [4]	SILAC ratio, KCC1D probe-modified peptide [5]	SILAC ratio, STK10 probe-modified peptide [6]
O=C(c1ccc(F)cc1)C1CCN(CCn2c(=O)[nH]c3ccccc3c2=O)CC1 [Ketanserin]	1.4	1.2	1.4	1.4	1.5	1.3
Cc1nc2sccn2c(=O)c1CCN1CCC(=C(c2ccc(F)cc2)c2ccc(F)cc2)CC1 [Ritanserin]	2.1	1.8	1.7	2.2	2.3	1.7
Fc1ccc(C(=C2CCNCC2)c2ccc(F)cc2)cc1 [RF001, 4-(Bis(4-fluorophenyl)methylene) piperidine]	1.3	1.1	1.2	1.1	1.1	1.1
